Like-named read-outs stand apart in the source and are kept apart here. Starred links: 1 amine or outer side, 2 acyl side, 3 side chain; linkers in the order of their positions; H or OH if unused. Non-standard residues stand in square brackets, D forms with d. Residues, ends and D or L forms follow the SMILES beside them. Groups on a side chain read outwards from the residue. No end group written: not given here. *: point of attachment. C18 diacid = O=C(O)CCCCCCCCCCCCCCCCC(=O)*; C17 diacid = O=C(O)CCCCCCCCCCCCCCCC(=O)*; γGlu = O=C(O)[C@H](CCC(=O)[*:2])N[*:1]; NMeY = CN[C@@H](Cc1ccc(O)cc1)C(=O)O; AEEA = NCCOCCOCC(=O)O; Aib = CC(C)(N)C(=O)O
T1: full-length human GIPR with an N-terminal FLAG tag (human, UniProt P48546 22-466)
T1 sequence (looked up): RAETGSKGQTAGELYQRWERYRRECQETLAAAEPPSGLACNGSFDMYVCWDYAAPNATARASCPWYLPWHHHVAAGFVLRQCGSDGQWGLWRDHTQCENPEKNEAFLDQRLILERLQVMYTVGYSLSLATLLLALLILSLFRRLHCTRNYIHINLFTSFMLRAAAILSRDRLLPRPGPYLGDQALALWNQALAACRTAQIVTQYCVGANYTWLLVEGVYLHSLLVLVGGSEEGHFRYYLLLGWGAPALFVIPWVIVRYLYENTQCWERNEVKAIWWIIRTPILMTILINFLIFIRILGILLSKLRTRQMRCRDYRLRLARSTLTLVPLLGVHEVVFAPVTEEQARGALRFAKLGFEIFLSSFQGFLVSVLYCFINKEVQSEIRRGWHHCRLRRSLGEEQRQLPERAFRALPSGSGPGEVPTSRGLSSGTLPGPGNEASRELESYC


Assays:
[1] = Pharmacokinetics in dog after IV and SC dosing; conditions: in vivo
Protocol: Pharmacokinetic (PK) were conducted in dog in order to determine the half-life after IV and SC dosing. The peptide was dissolved in 10% DMSO/0.09% Polysorbate/PBS pH 7.4 to a concentration of 3 nmol/mL and the animal were dose with a volume of 1 mL/kg SC or IV. Blood sample were collected at 0, 0.033, 0.083, 0.25, 0.5, 1, 2, 4, 6, 8, 12, 24, 48, 72, 96, 120, 168, 336 hours for IV dosing and 0.25, 0.5, 1, 2, 4, 6, 8, 12, 24, 48, 72, 96, 120, 168, 336 for SC dosing, EDTA-K2 was used as anticoagulant. The plasma concentration of the peptide was measured using LCMS. Allometric scaling of lipidated peptide pharmacokinetics including T1/2 and MRT is known in the art for rodent to dog and mini pig and to humans. […] See for example, Discovery and Development of Liraglutide and Semaglutide. Knudsen, L. B.; Lau, J. Frontiers in Endocrinology, 2019, vol 10, Article 155.

[2] = Human plasma protein binding (PPB); type: in vitro ADME
Method in brief: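 Peptides spiked at 1000 nmol/L into pooled human K2-EDTA plasma adjusted to pH 7.4, incubated 30 min at 37 °C, then ultracentrifuged at ~450,000 g, 4 °C for 3 h. Fu derived from LC-MS/MS (MRM) peak area ratios, supernatant versus plasma.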

[3] = Dog plasma protein binding (PPB); type: in vitro ADME; conditions: pH 7.4; for fraction unbound: dog serum, read-out: Dog PPB (FUplasma)
Method in brief: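 Dog serum replaced human serum, with the protocol and analysis otherwise the same as for human plasma protein binding. Values are reported as fraction unbound (Fu,plasma) expressed as a percentage.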

physchem = experiment: physchem
Method in brief: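 3 mg of peptide treated with 100 μL portions of 200 mM phosphate buffer pH 7.4, sonicating/vortexing up to 1 min, with further buffer added until fully dissolved. Solubility then quantified by HPLC.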

human GLP-1R = target: T2, human GLP-1R (Homo sapiens, UniProt P43220); experiment: Human GLP1R agonist activity, intracellular cAMP accumulation; type: cell-based; conditions: HEK-293T cells overexpressing human GLP-1R, 1 hr, read-out: Human GLP1R cAMP EC50, HEK293T
T2 construct: HEK-293T cells overexpressing full-length human GLP-1R; FLAG (N); host or cells: HEK-293T
Method in brief: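 Frozen assay-ready cells washed and resuspended at 4×10^5 cells/mL in Krebs Ringer buffer, then incubated with compound 1 hr at room temperature in the dark. cAMP read by HTRF (anti-cAMP antibody, d2-cAMP tracer). Normalised to 1 nm GLP-1 (100%) and DMSO (0%).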

[4] = target: full-length human GLP-1R with an N-terminal FLAG tag (human, UniProt P43220 24-463); experiment: cell-based or functional assay
[5] = target: T1, full-length human GIPR with an …; experiment: cell-based or functional assay
dog plasma proteins = experiment: plasma protein binding, ultracentrifugation, LC-MS/MS
human plasma proteins = experiment: as above
[6] = IV 3 nmol/kg, read-out: IV T½ (converted)
[7] = SC 3 nmol/kg, read-out: SC MRT 0-last
[8] = judged for once per week (QW) dosing

T2 sequence (P43220 24-463): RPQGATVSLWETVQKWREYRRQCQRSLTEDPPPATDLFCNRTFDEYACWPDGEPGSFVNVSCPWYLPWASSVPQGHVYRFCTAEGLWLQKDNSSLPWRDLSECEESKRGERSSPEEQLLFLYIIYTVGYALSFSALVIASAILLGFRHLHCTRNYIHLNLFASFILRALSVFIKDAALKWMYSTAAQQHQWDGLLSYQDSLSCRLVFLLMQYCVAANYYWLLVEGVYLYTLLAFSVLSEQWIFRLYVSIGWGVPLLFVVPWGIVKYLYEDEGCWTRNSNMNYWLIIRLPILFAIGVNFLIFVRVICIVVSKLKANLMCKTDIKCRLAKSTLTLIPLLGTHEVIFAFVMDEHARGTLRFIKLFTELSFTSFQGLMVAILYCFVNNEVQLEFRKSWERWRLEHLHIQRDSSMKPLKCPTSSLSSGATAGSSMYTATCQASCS

Molecule	solubility (physchem; pH 7.4)	Human GLP1R cAMP EC50, HEK293T [4]	Human GIPR cAMP EC50, HEK293T [5]	Dog PPB (FUplasma), fraction unbound in plasma (fraction unbound) (dog plasma proteins)	Human PPB (FUplasma), fraction unbound in plasma (fraction unbound) (human plasma proteins)	also measured
CC[C@H](C)[C@H](NC(=O)[C@H](CO)NC(=O)[C@H](Cc1ccc(O)cc1)NC(=O)[C@H](CC(=O)O)NC(=O)[C@H](CO)NC(=O)[C@@H](NC(=O)[C@H](Cc1ccccc1)NC(=O)[C@@H](NC(=O)CNC(=O)[C@H](CCC(=O)O)NC(=O)C(C)(C)NC(=O)[C@H](Cc1ccc(O)cc1)NC)[C@@H](C)O)[C@@H](C)CC)C(=O)N[C@@H](C)C(=O)N[C@@H](CC(C)C)C(=O)N[C@@H](CC(=O)O)C(=O)N[C@@H](CCCNC(=N)N)C(=O)NC(C)(C)C(=O)N[C@@H](C)C(=O)N[C@@H](CCC(N)=O)C(=O)NC(C)(C)C(=O)N[C@@H](CCCCNC(=O)COCCOCCNC(=O)COCCOCCNC(=O)CC[C@H](NC(=O)CC[C@H](NC(=O)CCCCCCCCCCCCCCCCC(=O)O)C(=O)O)C(=O)O)C(=O)N[C@@H](Cc1ccccc1)C(=O)N[C@H](C(=O)N[C@@H](CC(N)=O)C(=O)N[C@@H](Cc1c[nH]c2ccccc12)C(=O)N[C@@H](CC(C)C)C(=O)N[C@@H](CC(C)C)C(=O)N[C@@H](C)C(=O)N[C@@H](CCC(N)=O)C(=O)N[C@@H](CCCCN)C(=O)NCC(=O)O)C(C)C [Compound 41, Me-Y-Aib-E-G-T-F-I-S-D-Y-S-I-A-L-D-R-Aib-A-Q-Aib-Km-F-V-N-W-L-L-A-Q-K-G-OH] (H-[NMeY][Aib]EGTFISDYSIALDR[Aib]AQ[Aib]K([AEEA-AEEA-γGlu-γGlu-C18 diacid])FVNWLLAQKG-OH)	≥ 15 mg/mL					half-life [1, 6]: 115 h; MRT last [1, 7]: 119 h; Human PPB (FUplasma) ([2]; fraction unbound, human plasma, 1000 nmol/L peptide, ultracentrifugation): <0.002; free unbound peptide in human plasma (in words) [2, 8]: optimum free unbound peptide; fraction unbound [3]: 0.0007
CC[C@H](C)[C@H](NC(=O)[C@H](CO)NC(=O)[C@H](Cc1ccc(O)cc1)NC(=O)[C@H](CC(=O)O)NC(=O)[C@H](CO)NC(=O)[C@@H](NC(=O)[C@H](Cc1ccccc1)NC(=O)[C@@H](NC(=O)CNC(=O)[C@H](CCC(=O)O)NC(=O)C(C)(C)NC(=O)[C@H](Cc1ccc(O)cc1)NC)[C@@H](C)O)[C@@H](C)CC)C(=O)N[C@@H](C)C(=O)N[C@@H](CC(C)C)C(=O)N[C@@H](CC(=O)O)C(=O)N[C@@H](CCCNC(=N)N)C(=O)NC(C)(C)C(=O)N[C@@H](CCCCNC(=O)COCCOCCNC(=O)COCCOCCNC(=O)CC[C@H](NC(=O)CC[C@H](NC(=O)CCCCCCCCCCCCCCCCC(=O)O)C(=O)O)C(=O)O)C(=O)N[C@@H](CCC(N)=O)C(=O)NC(C)(C)C(=O)N[C@@H](CC(N)=O)C(=O)N[C@@H](Cc1ccccc1)C(=O)N[C@H](C(=O)N[C@@H](CC(N)=O)C(=O)N[C@@H](Cc1c[nH]c2ccccc12)C(=O)N[C@@H](CC(C)C)C(=O)N[C@@H](CC(C)C)C(=O)N[C@@H](C)C(=O)N[C@@H](CCC(N)=O)C(=O)N[C@@H](CO)C(=O)N1CCC[C@H]1C(=O)N[C@@H](CO)C(=O)N[C@@H](CO)C(=O)NCC(=O)N[C@@H](C)C(=O)N1CCC[C@H]1C(=O)N1CCC[C@H]1C(=O)N1CCC[C@H]1C(=O)N[C@@H](CO)C(N)=O)C(C)C [Compound 293, Me-Y-Aib-E-G-T-F-I-S-D-Y-S-I-A-L-D-R-Aib-Km-Q-Aib-N-F-V-N-W-L-L-A-Q-S-P-S-S-G-A-P-P-P-S-NH2] (H-[NMeY][Aib]EGTFISDYSIALDR[Aib]K([AEEA-AEEA-γGlu-γGlu-C18 diacid])Q[Aib]NFVNWLLAQSPSSGAPPPS-NH2)	≥ 15 mg/mL					half-life ([1]; iv, 3 nmol/kg): 68 h; MRT last ([1]; sc, 3 nmol/kg): 83 h; fraction unbound at 30 min, 1000 nmol/L ([2]; both sexes, human, plasma, pH 7.4): < 0.002; free unbound peptide in human plasma (in words) ([2]; human, plasma): optimum free unbound peptide; fraction unbound at 30 min, 1000 nmol/L ([3]; dog, serum): < 0.002; solubility (physchem; pH 7.4, aqueous buffer): ≥ 30 mg/mL
CC[C@H](C)[C@H](NC(=O)[C@H](Cc1ccccc1)NC(=O)[C@@H](NC(=O)CNC(=O)[C@H](CCC(=O)O)NC(=O)C(C)(C)NC(=O)[C@H](Cc1ccc(O)cc1)NC)[C@@H](C)O)C(=O)N[C@@H](CO)C(=O)N[C@@H](CC(=O)O)C(=O)N[C@@H](Cc1ccc(O)cc1)C(=O)N[C@@H](CO)C(=O)N[C@H](C(=O)NC(C)(C)C(=O)N[C@@H](CCCCNC(=O)CNC(=O)CNC(=O)CNC(=O)CNC(=O)CNC(=O)CCCCCCCCCCCCCCCCC(=O)O)C(=O)N[C@@H](CC(=O)O)C(=O)N[C@@H](CCCNC(=N)N)C(=O)NC(C)(C)C(=O)N[C@@H](C)C(=O)N[C@@H](CCC(N)=O)C(=O)NC(C)(C)C(=O)N[C@@H](CC(=O)O)C(=O)N[C@@H](Cc1ccccc1)C(=O)N[C@H](C(=O)N[C@@H](CC(N)=O)C(=O)N[C@@H](Cc1c[nH]c2ccccc12)C(=O)N[C@@H](CC(C)C)C(=O)N[C@@H](CC(C)C)C(=O)N[C@@H](C)C(=O)N[C@@H](CCC(N)=O)C(=O)N[C@@H](CCCNC(=N)N)C(=O)NCC(=O)O)C(C)C)[C@@H](C)CC [Compound 294, Me-Y-Aib-E-G-T-F-I-S-D-Y-S-I-Aib-Km-D-R-Aib-A-Q-Aib-D-F-V-N-W-L-L-A-Q-R-G-OH]	≥ 15 mg/mL					half-life [1, 6]: 59 h; MRT last [1, 7]: 97 h; EC50 (human GLP-1R): 38.9 nM; fraction unbound ([2]; both sexes, pH 7.4, fraction unbound, human plasma, 1000 nmol/L peptide, ultracentrifugation, read-out: Human PPB (FUplasma)): < 0.002; free unbound peptide in human plasma (in words) [2, 8]: optimum free unbound peptide; fraction unbound [3]: 0.0111; solubility (physchem; pH 7.4, aqueous buffer): ≥ 30 mg/mL
[NMeY][Aib]EGTFISDYSI[Aib]LDR[Aib]AQ[Aib]K([AEEA-AEEA-γGlu-γGlu-C17 diacid])FVNWLLAQRPSSGAPPPS-NH2 [Compound No. 13]		49 nM	0.0004 nM	< 0.002	< 0.002	
[NMeY][Aib]EGTFISDYSI[Aib]LDRK([AEEA-AEEA-γGlu-γGlu-C17 diacid])AQ[Aib]NFVNWLLAQRPSSGAPPPS-NH2 [Compound No. 15]		35.9 nM	0.0003 nM	0.0021	0.0017	
[NMeY][Aib]EGTFISDYSI[Aib]LDR[Aib]AQ[Aib]NFVNWLLAQK([AEEA-AEEA-γGlu-γGlu-C17 diacid])PSSGAPPPS-NH2 [Compound No. 16]		35.1 nM	0.0004 nM	< 0.00116	< 0.0012	
[NMeY][Aib]EGTFISDYSIALDR[Aib]HQ[Aib]NFVNWLLAK([AEEA-AEEA-γGlu-γGlu-C18 diacid])R-NH2 [Compound No. 19]				0.0005	0.0011	
[NMeY][Aib]EGTFISDYSI[Aib]LDR[Aib]AQ[Aib]NFVNWLLAQK([AEEA-AEEA-γGlu-γGlu-C18 diacid])PSSGAPPPS-NH2 [Compound No. 27]		87.1 nM	0.0004 nM	< 0.002	0.0013	
[NMeY][Aib]EGTFISDYSIALDR[Aib]AQ[Aib]K([AEEA-AEEA-γGlu-γGlu-C18 diacid])FVNWLLAQKG-OH [Compound No. 41]				0.0007	< 0.002	

Source: patent US20230143604A1, “QW DOSING OF GIP RECEPTOR AGONIST PEPTIDE COMPOUNDS AND USES THEREOF” (TAKEDA PHARMACEUTICAL COMPANY LIMITED, priority 2020, published 2023)
